Here are results for 24 compounds from ChEMBL document CHEMBL4334450, “Green synthesis, biological evaluation, molecular docking studies and 3D-QSAR analysis of novel phenylalanine linked quinazoline-4(3H)-one-sulphonamide hybrid entities distorting the malarial reductase activity in folate pathway” (Bioorg Med Chem, 2019).

Values after ≈ are worked out from the molar mass of the structure shown.

Data set [1] has as its system Plasmodium falciparum. Put plainly: Antiplasmodial activity against Plasmodium falciparum infected in human RBC assessed as reduction in parasite LDH activity by spectrophotometric assay. Format: functional, organism-based.
The next data set has as its system Vero. Put plainly: Cytotoxicity against African green monkey Vero cells assessed as reduction in cell viability incubated for 72 hrs by CellTiter 96 Non-radioactive Cell Proliferation Assay. In kind it is cell-based. To be noted: Chlorocebus sabaeus.
For another data set, the system named is Erythrocyte. Put plainly: Cytotoxicity against human RBC assessed as reduction in cell viability by MTT assay. Format: cell-based.
The target in another data set is T1, Dihydrofolate reductase (Bos taurus, UniProt P00376).
T1 sequence (P00376 whole entry): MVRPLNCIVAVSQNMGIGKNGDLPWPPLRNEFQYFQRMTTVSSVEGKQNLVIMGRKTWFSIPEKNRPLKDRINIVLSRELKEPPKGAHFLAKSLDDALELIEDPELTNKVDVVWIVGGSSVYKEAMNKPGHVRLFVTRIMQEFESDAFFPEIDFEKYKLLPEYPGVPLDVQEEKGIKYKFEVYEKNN
Put plainly: Inhibition of bovine liver DHFR using FH2 as substrate incubated for 2 mins followed by substrate addition.

For data set [2], the system named is Plasmodium falciparum. The data set is described as follows: Antimalarial activity against Plasmodium falciparum FCR3 infected in human erythrocytes by Giemsa staining analysis. In kind it is functional, organism-based.
A further data set relates to bovine liver DHFR. The data set is described as follows: Therapeutic index, ratio of IC50 for African green monkey Vero cells to IC50 for bovine liver DHFR. In kind it is toxicity. To be noted: read-out: Ratio IC50.
In data set [3] the test system is Plasmodium falciparum. Put plainly: Antiplasmodial activity against Plasmodium falciparum infected in human RBC […] by MTT assay. In kind it is functional, organism-based. For orientation: Tetrazolium assays rely on reduction of a dye to a coloured formazan, in cell work by metabolically active cells.
Data set [4] is described as follows: Therapeutic index, ratio of CC50 for human RBC to EC50 for Plasmodium falciparum infected in human RBC. Format: toxicity. To be noted: human red blood cells (RBC), read-out: Ratio CC50/EC50.

As to `CC(=O)Nc1ccc(S(=O)(=O)NC(Cc2ccccc2)c2nc3ccccc3c(=O)n2/N=C/c2ccc(Br)cc2)cc1` (centres undefined), the IC50 in the data set on Plasmodium falciparum [1] is 96.38 ppm; with Vero, 15 µg/mL (≈ 23.3 µM); against Dihydrofolate reductase, 0.129 µM; with Plasmodium falciparum [2], 0.092 µg/mL (≈ 0.143 µM). In addition, in the data set with Erythrocyte, the CC50 amounted to 10575 ppm. Also, the figures for the selectivity ratio (in the data set with bovine liver DHFR; in data set [4]) were 181 and 91.5, respectively. This compound gave an EC50 in the data set with Plasmodium falciparum [3] of 115.61 ppm.

For `CC(=O)Nc1ccc(S(=O)(=O)NC(Cc2ccccc2)c2nc3ccccc3c(=O)n2/N=C/c2ccccc2F)cc1` (centres undefined), the IC50 in the data set on Plasmodium falciparum [2] is 1.28 µg/mL (≈ 2.19 µM).

With `CC(=O)Nc1ccc(S(=O)(=O)NC(Cc2ccccc2)c2nc3ccccc3c(=O)n2/N=C/c2ccc(F)cc2)cc1` (centres undefined), the IC50 with Plasmodium falciparum [1] is 3402 ppm; in the data set on Vero, 15 µg/mL (≈ 25.7 µM); against Dihydrofolate reductase, 0.0617 µM; in the data set on Plasmodium falciparum [2], 0.067 µg/mL (≈ 0.115 µM). Besides, in the data set on Erythrocyte, the CC50 worked out at 29330 ppm. The selectivity ratio with bovine liver DHFR is 417; in data set [4], 15.4. The same compound showed an EC50 with Plasmodium falciparum [3] of 1909 ppm.

With `CC(=O)Nc1ccc(S(=O)(=O)NC(Cc2ccccc2)c2nc3ccccc3c(=O)n2/N=C/c2ccc(C)cc2)cc1` (centres undefined), the IC50 is 8432 ppm with Plasmodium falciparum [1], 15 µg/mL (≈ 25.9 µM) in the data set on Vero, 0.0949 µM against Dihydrofolate reductase and 0.067 µg/mL (≈ 0.116 µM) in the data set on Plasmodium falciparum [2]. Also, the selectivity ratio turned out to be 273 with bovine liver DHFR and 1670 in data set [4]. Further, the EC50 with Plasmodium falciparum [3] came to 1106 ppm.

Take `CC(=O)Nc1ccc(S(=O)(=O)NC(Cc2ccccc2)c2nc3ccccc3c(=O)n2/N=C/c2cccc(Br)c2)cc1` (centres undefined): the IC50 with Plasmodium falciparum [2] worked out at 0.92 µg/mL (≈ 1.43 µM).

`CC(=O)Nc1ccc(S(=O)(=O)NC(Cc2ccccc2)c2nc3ccccc3c(=O)n2/N=C/c2ccccc2Br)cc1` (centres undefined) showed an IC50 in the data set with Plasmodium falciparum [2] of 0.7 µg/mL (≈ 1.09 µM).

In turn, `CC(=O)Nc1ccc(S(=O)(=O)NC(Cc2ccccc2)c2nc3ccccc3c(=O)n2/N=C/c2ccccc2)cc1` (centres undefined) came in with an IC50 in the data set on Plasmodium falciparum [2] of 1.28 µg/mL (≈ 2.26 µM).

Turning to `COc1cccc(/C=N/n2c(C(Cc3ccccc3)NS(=O)(=O)c3ccc(NC(C)=O)cc3)nc3ccccc3c2=O)c1` (centres undefined), the IC50 in the data set on Plasmodium falciparum [2] was found to be 1.01 µg/mL (≈ 1.7 µM).

For the compound `CC(=O)Nc1ccc(S(=O)(=O)NC(Cc2ccccc2)c2nc3ccccc3c(=O)n2/N=C/c2cccc(Cl)c2)cc1` (centres undefined), the IC50 with Plasmodium falciparum [1] was 524.8 ppm; in the data set with Vero it was 15 µg/mL (≈ 25 µM); against Dihydrofolate reductase, 0.0817 µM; in the data set with Plasmodium falciparum [2], 0.082 µg/mL (≈ 0.137 µM). For the same compound, the CC50 with Erythrocyte is 18850 ppm. For the same compound, the selectivity ratio with bovine liver DHFR came to 306; in data set [4] it was 51.1. The compound further returned an EC50 with Plasmodium falciparum [3] of 368.97 ppm.

For `COc1ccccc1/C=N/n1c(C(Cc2ccccc2)NS(=O)(=O)c2ccc(NC(C)=O)cc2)nc2ccccc2c1=O` (centres undefined), the IC50 in the data set with Plasmodium falciparum [2] amounted to 1.05 µg/mL (≈ 1.77 µM).

Consider `CC(=O)Nc1ccc(S(=O)(=O)NC(Cc2ccccc2)c2nc3ccccc3c(=O)n2/N=C/c2ccc(Cl)cc2)cc1` (centres undefined), for which the IC50 in the data set with Plasmodium falciparum [2] stood at 0.84 µg/mL (≈ 1.4 µM).

For the compound `CC(=O)Nc1ccc(S(=O)(=O)NC(Cc2ccccc2)c2nc3ccccc3c(=O)n2/N=C/c2ccc([N+](=O)[O-])cc2)cc1` (centres undefined), in the data set on Plasmodium falciparum [2], the IC50 is 0.72 µg/mL (≈ 1.18 µM).

In the data set with Plasmodium falciparum [2], `CC(=O)Nc1ccc(S(=O)(=O)NC(Cc2ccccc2)c2nc3ccccc3c(=O)n2/N=C/c2ccccc2O)cc1` (centres undefined) displayed an IC50 of 0.78 µg/mL (≈ 1.34 µM).

`CC(=O)Nc1ccc(S(=O)(=O)NC(Cc2ccccc2)c2nc3ccccc3c(=O)n2/N=C/c2cccc(C)c2)cc1` (centres undefined): in the data set on Plasmodium falciparum [2], the IC50 turned out to be 0.78 µg/mL (≈ 1.35 µM).

`CC(=O)Nc1ccc(S(=O)(=O)NC(Cc2ccccc2)c2nc3ccccc3c(=O)n2/N=C/c2cccc([N+](=O)[O-])c2)cc1` (centres undefined) returned an IC50 in the data set on Plasmodium falciparum [2] of 1.12 µg/mL (≈ 1.83 µM).

In the data set on Plasmodium falciparum [2], `CC(=O)Nc1ccc(S(=O)(=O)NC(Cc2ccccc2)c2nc3ccccc3c(=O)n2/N=C/c2cccc(O)c2)cc1` (centres undefined) registered an IC50 of 1.24 µg/mL (≈ 2.13 µM).

As to `CC(=O)Nc1ccc(S(=O)(=O)NC(Cc2ccccc2)c2nc3ccccc3c(=O)n2/N=C/c2cccc(F)c2)cc1` (centres undefined), the IC50 is 4672 ppm in the data set on Plasmodium falciparum [1], 15 µg/mL (≈ 25.7 µM) in the data set on Vero, 0.0497 µM at Dihydrofolate reductase and 0.084 µg/mL (≈ 0.144 µM) with Plasmodium falciparum [2]. The CC50 in the data set with Erythrocyte is 58408 ppm. The selectivity ratio in the data set with bovine liver DHFR came out at 517; in data set [4], 20.6. Besides, in the data set with Plasmodium falciparum [3], the EC50 stood at 2831 ppm.

As to `CC(=O)Nc1ccc(S(=O)(=O)NC(Cc2ccccc2)c2nc3ccccc3c(=O)n2/N=C/c2ccccc2Cl)cc1` (centres undefined), the IC50 in the data set with Plasmodium falciparum [2] amounted to 0.72 µg/mL (≈ 1.2 µM).

Compound `CC(=O)Nc1ccc(S(=O)(=O)NC(Cc2ccccc2)c2nc3ccccc3c(=O)n2/N=C/c2ccccc2C)cc1` (centres undefined) gave an IC50 with Plasmodium falciparum [2] of 1.26 µg/mL (≈ 2.17 µM).

Turning to `CCN(CC)CCCC(C)Nc1ccnc2cc(Cl)ccc12` (centres undefined) [CHLOROQUINE], in the data set with Erythrocyte, the CC50 came to 466.66 ppm. The compound also had an EC50 in the data set on Plasmodium falciparum [3] of 28.97 ppm.

`C=C[C@H]1CN2CC[C@H]1C[C@H]2[C@H](O)c1ccnc2ccc(OC)cc12` [QUININE]: in the data set with Plasmodium falciparum [2], the IC50 was 0.268 µg/mL (≈ 0.826 µM).

As to `CC(=O)Nc1ccc(S(=O)(=O)NC(Cc2ccccc2)c2nc3ccccc3c(=O)n2/N=C/c2ccccc2[N+](=O)[O-])cc1` (centres undefined), the IC50 in the data set with Plasmodium falciparum [2] worked out at 1.52 µg/mL (≈ 2.49 µM).

In the data set on Plasmodium falciparum [2], `COc1ccc(/C=N/n2c(C(Cc3ccccc3)NS(=O)(=O)c3ccc(NC(C)=O)cc3)nc3ccccc3c2=O)cc1` (centres undefined) displayed an IC50 of 0.72 µg/mL (≈ 1.21 µM).

`CC(=O)Nc1ccc(S(=O)(=O)NC(Cc2ccccc2)c2nc3ccccc3c(=O)n2/N=C/c2ccc(O)cc2)cc1` (centres undefined): the IC50 in the data set with Plasmodium falciparum [2] stood at 0.68 µg/mL (≈ 1.17 µM).
